In patent US5244905A, “N-substituted cycloalkyl and polycycloalkyl polyhydro-β-carboline-phenylalanine- and phenethylamine derivatives” (Warner-Lambert Company, priority 1991, dated 1993):

Columns and labels:
[1] = target: T1, Central CCK Receptors (Mus musculus, UniProt P56481); assay: Binding to central CCK receptors ([3H]-pentagastrin displacement, mouse cerebral cortical membranes); set-up: species or system mouse (male CFLP); settings: tritiated pentagastrin 2 nM, number of assays (n) = 2
T1 construct: from tissue; host or cells: cerebral cortex of male CFLP mice (washed membranes)
T1 sequence (P56481 1-453): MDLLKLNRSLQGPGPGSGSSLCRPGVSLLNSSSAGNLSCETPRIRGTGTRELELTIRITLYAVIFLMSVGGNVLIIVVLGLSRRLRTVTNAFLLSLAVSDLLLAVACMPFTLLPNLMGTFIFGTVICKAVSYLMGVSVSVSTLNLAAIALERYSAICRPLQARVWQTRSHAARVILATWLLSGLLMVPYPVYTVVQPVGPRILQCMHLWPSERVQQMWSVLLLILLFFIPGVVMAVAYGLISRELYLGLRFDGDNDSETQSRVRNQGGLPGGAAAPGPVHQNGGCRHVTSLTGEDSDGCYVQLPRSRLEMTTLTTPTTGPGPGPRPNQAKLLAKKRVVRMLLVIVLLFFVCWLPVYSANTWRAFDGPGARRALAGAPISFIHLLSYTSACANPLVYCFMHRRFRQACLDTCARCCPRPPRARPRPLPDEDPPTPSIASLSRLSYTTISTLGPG
Description: (§1) The biological activity of compounds of the present invention was evaluated employing an initial screening test which rapidly and accurately measured the binding of the tested compound to known CCK receptor sites. […] (See Hays et al, Neuropeptides 1:53-62, 1980; and Satuer et al, Science, 208:1155-1156, 1980.
(§2) In this screening test, the cerebral cortices taken from male CFLP mice weighing between 30-40 g were dissected on ice, weighed, and homogenized in 10 volumes of 50 mM Tris-HCl buffer (pH 7.4 at 0°-4° C.). The resulting suspension was centrifuged, the supernate was discarded, and the pellet was washed by resuspension in Tris-HCl buffer followed by recentrifugation. The final pellet was resuspended in 20 volumes of […] Hepes buffer (pH 7.2 at 23° C.) containing 130 mM NaCl, […] KCl, […] MgCl2, […] EDTA, 5 mg/mL bovine albumin, and bacitracin (0.25 mg/mL).
(§3) In saturation studies, cerebral cortical membranes were incubated at 23° C. for 120 minutes in a final volume of 500 μliter of Hepes incubation buffer (pH 7.2) together with 0.2-20 nM tritiated-pentagastrin (Amersham International, England).
(§4) In the displacement experiments, membranes were incubated with a single concentration (2 nM) of ligand, together with increasing concentrations ([…]) of competitive test compound. In each case, the nonspecific binding was defined as that persisting in the presence of the unlabeled octapeptide CCK26-33 (10^-6 M).
(§5) Following incubation, radioactivity bound to membranes was separated from that free in solution by rapid filtration through Whatman GF/B filters and washed three times with 4 mL of ice cold Tris-HCl buffer. Filters from samples incubated with tritiated-pentagastrin were placed in polyethylene vials with 4 mL of scintillation cocktail, and the radioactivity was estimated by liquid scintillation spectrometry (efficiency 47% to 52%).
(§6) The specific binding to CCK receptor sites was defined as the total bound tritiated-pentagastrin minus the amount of tritiated-pentagastrin bound in the presence of 10^-6 octapeptide, CCK26-33.
(§7) Saturation curves for specific tritiated-pentagastrin binding to mouse cortical membranes were analyzed by the methods of Scatchard (Ann. New York Acad. Sci. 51:660 672, 1949, and Hill (J. Physiol. 40:IV-VIII, 1910, to provide estimates for the maximum number of binding sites (Bmax) and the equilibrium dissociation constant ([…]).
(§8) In displacement experiments, inhibition curves were analyzed by either logit-log plots or the iterative curve fitting computer program ALLFIT (DeLean, Munson and Redbard, 1978) to provide estimates of the IC50 and nH (apparent Hill coefficient) values). (IC50 values were defined as the concentration of test compound required to produce 50% inhibition of specific binding.)
(§9) The inhibition constant (Ki) of the test compound was then calculated according to the Cheng-Prusoff equation: [formula] where [L] is the concentration of radiolabel and Ka is the equilibrium dissociation constant.
The Ki values for several representative compounds of the present invention are present in Table II.

[2] = target: T2, CCK-B receptor (Mus musculus, UniProt P56481); assay: Binding to the CCK-B receptor (Table III); set-up: species or system mouse (male CFLP)
T2 construct: from tissue
T2 sequence (P56481 1-453): T1 sequence (P56481 1-453)
Description: as §1, §2, §3, §4, §5, §6, §7, §8, §9

[3] = test system: nucleus accumbens; assay: Locomotor activity after intra-accumbens amphetamine; assay type: in vivo, rat (male Sprague Dawley (CD) Bradford); settings: bilateral injection 20 μg into nucleus accumbens
Description: The compounds of the instant invention are useful as antipsychotic agents. Compounds are tested for their ability to reduce the effects of intra-accumbens amphetamine in the rat as described hereinafter.
Male Sprague Dawley (CD) Bradford strain rats are used. The rats are housed in groups of five at a temperature of 21°±2° C. on a 12 hour light-dark cycle of lights-on between 07 hours 00 minutes and 20 hours 00 minutes. Rats are fed CRM diet (Labsure) and allowed water ad libitum.
Rats are anesthetized with chloral hydrate (400 mg/kg SC) and placed in a Kopf stereotaxic frame. Chronically indwelling guide cannulae (constructedof stainless steel tubing 0.65 mm diameter held bilaterally in Parspex holders) are implanted using standard stereotaxic techniques to terminate 3.5 mm above the center of the nucleus accumbens (Ant. 0.4, Vert. 0.0, Lat. 1.6) or 5.0 mm above the central nucleus of the amygdala (Ant. 5.8, Vet. -1.8, Lat. ±4.5) (Atlas of De Groot, 1959). […]
Behavioral experiments are conducted between 07 hours 30 minutes and 21 hours 30 minutes in a quiet room maintained at 22°±2° C. […] Interruptions of the light beam are recorded every 5 minutes. […]
The abilities of the compounds of the invention to inhibit the hyperactivity caused by the injection of amphetamine into the nucleus accumbens of the rat is measured.

[4] = test system: aspirin-induced gastric damage; assay: Aspirin-induced gastric damage; assay type: in vivo, rat; settings: 15 mg/kg PO, p <0.001 compared with controls
Description: Aspirin-induced gastric damage is assessed in groups of 10 rats each. All animals are fasted for 24 hours before and throughout the experiment. Drug or vehicle is given 10 minutes before an oral dose of 1 mL of a 45-mg/mL suspension of aspirin in 0.5% carboxymethylcellulose (CMC). The animals are sacrificed 5 hours after aspirin administration and the stomachs removed and opened for examination. |Gastric damage is scored as follows: |1 Small hemorrhage |2 Large hemorrhage |3 Small ulcer |4 Large ulcer |5 Perforated ulcer

SMILES: O=C(NCCc1ccccc1)C1Cc2c([nH]c3ccccc23)CN1C(=O)OC1C2CC3CC(C2)CC1C3 (racemic) [Example 17]
- Ki [1]: 990 nM
- Ki [2]: 990 nM

SMILES: C[C@]1(C(=O)NCCc2ccccc2)Cc2c([nH]c3ccccc23)CN1C(=O)OC1C2CC3CC(C2)CC1C3 (stereo partly drawn) [Example 2]
- Ki [1]: 600 nM
- Ki [2]: 600 nM

SMILES: C[C@]1(C(=O)N[C@H](CO)Cc2ccccc2)Cc2c([nH]c3ccccc23)CN1C(=O)OC1C2CC3CC(C2)CC1C3 (stereo partly drawn) [Example 5]
- Ki [1]: 730 nM
- Ki [2]: 730 nM

SMILES: C[C@@]1(C(=O)N[C@H](CO)Cc2ccccc2)Cc2c([nH]c3ccccc23)CN1C(=O)OC1C2CC3CC(C2)CC1C3 (stereo partly drawn) [Example 6, (S)-1,3,4,9-Tetrahydro-3-[[[1-(hydroxymethyl)-2-phenylethyl]amino]carbonyl]-3-methyl-2H-pyrido[3,4-b]indole-2-carboxylic acid,tricyclo[3.3.1.1^3,7]dec-2-yl ester ester]
- Ki [1]: 1500 nM
- Ki [2]: 1500 nM

SMILES: CC1(C(=O)N[C@@H](CO)[C@@H](O)c2ccccc2)Cc2c([nH]c3ccccc23)CN1C(=O)OC1C2CC3CC(C2)CC1C3 (stereo partly drawn) [Example 7, 1,3,4,9-Tetrahydro-3-[[[1-(hydroxymethyl)-2-hydroxy-2-phenylethyl]amino]carbonyl]-3-methyl-2H-pyrido[3,4-b]-indole-2-carboxylic acid,tricyclo[3.3.1.1^3,7]dec-2-yl ester]
- Ki [1]: 860 nM
- Ki [2]: 860 nM

SMILES: CC1(C(=O)NCC(NC(=O)CCC(=O)O)c2ccccc2)Cc2c([nH]c3ccccc23)CN1C(=O)OC1C2CC3CC(C2)CC1C3 (stereo not drawn) [Example 9, 3-[[[2-(3-Carboxy-1-oxopropyl)-amino]-2-phenylethyl]amino]carbonyl]-1,3,4,9-tetrahydro-3-methyl-2H-pyrido[3,4-b]indole-2-carboxylic acid, tricyclo[3.3.1.1^3,7]dec-2-yl ester, [R-(R*,R*)] and [R-(R*,S*)]-]
- Ki [1]: 500 nM
- Ki [2]: 500 nM

SMILES: CC1(C(=O)NCC(O)c2ccccc2)Cc2c([nH]c3ccccc23)CN1C(=O)OC1C2CC3CC(C2)CC1C3 (stereo not drawn) [Example 12]
- Ki [1]: 710 nM
- Ki [2]: 710 nM

SMILES: CC1(C(=O)NCC(OC(=O)CCC(=O)O)c2ccccc2)Cc2c([nH]c3ccccc23)CN1C(=O)OC1C2CC3CC(C2)CC1C3 (stereo not drawn) [Example 13]
- Ki [1]: 1000 nM
- Ki [2]: 1000 nM

SMILES: CC(C)(C)OC(=O)N1Cc2[nH]c3ccccc3c2CC1C(=O)NC(Cc1ccccc1)C(=O)O (stereo not drawn) [Example 18, 3-[[1(I-Carboxy-2-phenethyl)amino]carbonyl]-1,3,4,9-tetrahydro-2H-pyrido[3,4-b]indole-2-carboxylic acid, 1,1-dimethylethyl ester]
- Ki [1]: 6000 nM
- Ki [2]: 6000 nM

SMILES: CC(N)Cc1ccccc1 (stereo not drawn) [amphetamine]
- locomotor activity [3]: increase in locomotor activity

SMILES: CNC(=C[N+](=O)[O-])NCCSCc1ccc(CN(C)C)o1 [ranitidine]
- inhibition of ulcer formation ([4]; 10 minutes before aspirin): 74%
- ulcer score ([4]; ±SD, saline control 12.1±6.85): 3.2±2.35
